Measurements as given in patent US20220089646A1 (THE UNIVERSITY OF QUEENSLAND, priority 2019, published 2022).
“Also recorded” adds a separate entry of the source. *1 amine or outer side, *2 acyl side, *3 side chain or, on linkers, in order; H or OH if unused. Where a SMILES comes first, the peptide text is derived from it. Bridges are numbered along the chain shown (N, C = ends). [ ]: non-standard residue; d: D form. ξ: configuration not given here. Phe(4-NO2) = N[C@@H](Cc1ccc([N+](=O)[O-])cc1)C(=O)O; Phe(4-Cl) = N[C@@H](Cc1ccc(Cl)cc1)C(=O)O; NHCH2CMe2S = CC(C)(CN[*:1])S[*:2]; NMeR = CN[C@@H](CCCNC(=N)N)C(=O)O; X1 = CC(C)(CN[*:2])S[*:1]; ξC = NC(CS)C(=O)O; Sar = CNCC(=O)O

Columns and labels:
MOP = MOP (Homo sapiens, UniProt P35372); assay: In vitro cAMP activity at MOP (Table 10); type: cell-based; settings: cAMP inhibition, four-parameter regression
Sequence of MOP (P35372 whole entry): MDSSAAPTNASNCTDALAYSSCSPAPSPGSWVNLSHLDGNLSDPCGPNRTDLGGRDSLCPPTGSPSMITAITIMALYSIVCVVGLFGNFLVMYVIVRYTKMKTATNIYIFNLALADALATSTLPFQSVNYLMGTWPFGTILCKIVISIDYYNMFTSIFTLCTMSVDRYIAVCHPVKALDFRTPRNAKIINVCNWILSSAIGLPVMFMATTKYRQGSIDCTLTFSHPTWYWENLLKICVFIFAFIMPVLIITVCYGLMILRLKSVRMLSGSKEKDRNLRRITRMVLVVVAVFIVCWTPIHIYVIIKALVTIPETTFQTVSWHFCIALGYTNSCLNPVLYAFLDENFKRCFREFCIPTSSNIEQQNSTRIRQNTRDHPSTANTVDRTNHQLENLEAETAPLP
Description: (§1) The CP series compounds were assayed as follows: The assay was performed using a 96 well ½ area plate. The different cAMP standard solutions (3 μL/well) were plated in duplicate. The different concentrations of drug (3 μL/well), and control solutions (3 μL/well) were plated in triplicate. Following this, the acceptor bead mixture (3 μL/well) was added to the respective sets—either cAMP standard curve or the treatment. This was covered and incubated on the orbital shaker for 60 minutes at 37° C. Then, the donor bead mixture (10 μL/well) was added to each well. This was incubated at room temperature overnight on the orbital shaker.
(§2) For DP-11-06 the assay was carried out in the same way as for the CP compounds except it was incubated for 30 mins at 37° C.
(§3) For the CP series compounds and DP-11-06, the Ensight® Multimode Plate Reader was used to quantify the fluorescence units of each plate. Before reading, each plate was centrifuged at 280 g for 30 seconds. Using GraphPad Prism7® Software, cAMP concentrations were determined by fit spline/LOWESS analysis. The cAMP standard curve was used for interpolation at this point. The cAMP concentrations were then normalized to the highest cAMP concentration recorded and analyzed by one-way ANOVA for multiple comparisons. The IC50 for each compound was then calculated using GraphPad Prism7® with non-linear regression analysis using four parameter curve fitting.
(§4) In this regard, a different regression analysis method was adopted on the above cAMP experiments. Particularly, a new non-linear regression (four-parameter) was adopted to better account for hill slope, thereby improving the regression fit.

[1] = target: T1, bovine pancreatic trypsin (Bos taurus, UniProt P00760); assay: Trypsin stability assay (Table 10); type: in vitro ADME; settings: for half-life / half-life at 100 uM: bovine pancreatic trypsin 2.5 μg/mL, 37° C., One Phase Decay, read-out: Stability (t1/2, mins) Trypsin; for half-life at 100 uM: bovine pancreatic trypsin solution; for Degradation in trypsin: over the 120 minute assay
T1 construct: from tissue; host or cells: bovine pancreas
T1 sequence (P00760 24-246): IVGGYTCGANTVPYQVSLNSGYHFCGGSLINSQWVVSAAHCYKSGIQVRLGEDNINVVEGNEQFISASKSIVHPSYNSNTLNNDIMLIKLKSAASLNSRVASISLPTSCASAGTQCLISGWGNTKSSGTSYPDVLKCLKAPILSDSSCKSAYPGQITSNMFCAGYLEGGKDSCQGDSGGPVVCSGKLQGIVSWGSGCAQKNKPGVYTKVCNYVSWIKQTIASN
From the text: (§5) FIG. 20 is a series of graphs showing the stability of selected peptides in a trypsin (left-hand graphs) and plasma (right-hand graphs) stability assay (data normalised to concentration of each peptide at t=0, determined by LCMS, within each substrate; data analysed using One Phase Decay nonlinear regression in Prism software and each experiment performed in triplicate; mean+/−SEM);
Plasma was collected in house from adult mixed-gender Wistar rats, prepared using 2% EDTA as per standard practice. Peptides were added to rat plasma samples at 37° C. (in a water bath) with final concentrations of 100 uM (1:9 peptide in water:plasma) and a 50 μL sample was immediately taken and precipitated in 150 μL cold acetonitrile (9:1 ACN:water). This sample became the baseline, or t=0 min sample. […] At each time point, the 50 μL of plasma collected was immediately added to cold ACN. Each collected plasma sample in ACN was directly vortexed for 30 seconds and then centrifuged at room temperature (13K rpm, 5 min). 150 μL of the supernatant was taken and directly placed in glass HPLC vials for LCMS analysis.
The protocol for the trypsin stability assay was very similar to the plasma stability assay discussed above. The only difference was the use of a trypsin solution (bovine pancreatic trypsin 2.5 μg/mL in NH4HCO3 buffer, pH approx. 8-8.5, 37° C.) instead of rat plasma. Volumes, times and preparation protocols were exactly as mentioned above.

[2] = Plasma stability assay (Table 10); type: in vitro ADME; settings: 37° C., 100 uM peptide, One Phase Decay, read-out: Stability (t1/2, mins) Plasma; for half-life: rat plasma; for half-life at 100 uM: both sexes, Wistar, rat plasma (EDTA)
From the text: as §5
(§6) The results shown in Table 10 utilized rat plasma. • Note that DP-7-11 and CP5 represent the same compound, and DP-7-12 and CP6 are the same compound. In this regard, a different regression analysis method was adopted on the above cAMP experiments. Particularly, a new non-linear regression (four-parameter) was adopted to better account for hill slope, thereby improving the regression fit.
Plasma was collected in house from adult mixed-gender Wistar rats, prepared using 2% EDTA as per standard practice. Peptides were added to rat plasma samples at 37° C. (in a water bath) with final concentrations of 100 uM (1:9 peptide in water:plasma) and a 50 μL sample was immediately taken and precipitated in 150 μL cold acetonitrile (9:1 ACN:water). This sample became the baseline, or t=0 min sample. Plasma with peptide was immediately returned to the water bath and subsequent 50 μL samples were taken at 5, 10, 15, 30, 60 and 120 min. At each time point, the 50 μL of plasma collected was immediately added to cold ACN. Each collected plasma sample in ACN was directly vortexed for 30 seconds and then centrifuged at room temperature (13K rpm, 5 min). 150 μL of the supernatant was taken and directly placed in glass HPLC vials for LCMS analysis.

KOP = KOP (Homo sapiens, UniProt P41145); assay: In vitro cAMP activity at KOP (Table 10); type: cell-based; settings: cAMP inhibition, four-parameter regression, normalised to U50488H
Sequence of KOP (P41145 whole entry): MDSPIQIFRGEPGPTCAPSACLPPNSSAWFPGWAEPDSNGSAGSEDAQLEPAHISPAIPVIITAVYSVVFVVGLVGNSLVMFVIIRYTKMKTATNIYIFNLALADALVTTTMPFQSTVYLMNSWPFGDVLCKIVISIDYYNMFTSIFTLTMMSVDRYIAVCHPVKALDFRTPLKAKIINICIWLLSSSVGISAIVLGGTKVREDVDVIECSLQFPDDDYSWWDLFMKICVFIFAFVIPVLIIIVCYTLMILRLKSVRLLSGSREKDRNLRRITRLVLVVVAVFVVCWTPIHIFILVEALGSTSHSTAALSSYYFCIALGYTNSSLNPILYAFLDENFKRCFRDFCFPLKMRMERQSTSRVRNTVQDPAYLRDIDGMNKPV
Description: as §1, §2, §3, §6

DOP = DOP (Homo sapiens, UniProt P41143); assay: In vitro cAMP activity at DOP (Table 10); type: cell-based; settings: cAMP inhibition, four-parameter regression
Sequence of DOP (P41143 whole entry): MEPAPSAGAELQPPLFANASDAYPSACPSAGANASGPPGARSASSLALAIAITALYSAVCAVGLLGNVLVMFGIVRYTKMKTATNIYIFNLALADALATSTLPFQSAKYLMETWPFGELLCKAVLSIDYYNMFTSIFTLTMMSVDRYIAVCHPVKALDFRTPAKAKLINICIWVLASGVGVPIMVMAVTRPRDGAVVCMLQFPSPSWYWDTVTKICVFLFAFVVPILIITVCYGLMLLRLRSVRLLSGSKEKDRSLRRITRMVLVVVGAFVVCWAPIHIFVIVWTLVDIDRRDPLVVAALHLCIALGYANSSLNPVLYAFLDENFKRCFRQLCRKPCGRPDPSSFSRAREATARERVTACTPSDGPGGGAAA
Description: as §1, §2, §3, §4

Stability in cAMP buffer = type: physicochemical; settings: over 60 minutes
From the text: Select compounds were also screened for stability in cAMP buffer, to assess whether they degrade spontaneously in the cell assay environment, in the absence of cellular metabolic processes.

trypsin = assay: stock trypsin solution (1 mg trypsin in 50 mL of 0.1 M NH4HCO3 buffer); settings: 37° C., up to 24 hours
[3] = system: bovine pancreatic trypsin; assay: bovine pancreatic trypsin 2.5 μg/mL in NH4HCO3 buffer, pH approx. 8-8.5; settings: 37° C., up to 120 min

CC1(C)CNC(=O)C[C@H](NC(=O)[C@@H](N)Cc2ccc(O)cc2)C(=O)NCC(=O)N[C@@H](Cc2ccccc2)C(=O)NC(C(=O)N[C@@H](CCCNC(=N)N)C(=O)N[C@@H](CCCNC(=N)N)C(N)=O)CSS1 (stereo partly drawn) [CP2, c(Tyr-Asp-Gly-Phe-SSa-Arg-Arg)] (H-YDGF[ξC]RR-NH2; linker 2-5 via NHCH2CMe2S; N-terminus assumed)
EC50 (MOP): 2330 nM | half-life [1]: < 0.01 min | half-life [2]: < 0.01 min | EC50 (KOP): 320 nM | EC50 (DOP): 1380 nM

CC(C)C[C@H](NC(=O)[C@H](Cc1ccc(Cl)cc1)NC(=O)CN(C)C(=O)[C@@H](N)Cc1ccc(O)cc1)C(=O)N[C@@H](CCCNC(=N)N)C(=O)N[C@H](CCCNC(=N)N)C(=O)N[C@H]1CSSC(C)(C)CNC(=O)C[C@@H](C(N)=O)NC1=O [CP9, c(Tyr-Sar-(p-Cl-Phe)-Leu-Arg-D(Arg)-SSa-Asp)] (H-Y[Sar][Phe(4-Cl)]LR[dR]CD-NH2; linker 7-8 via X1)
EC50 (MOP): > 10000 nM | half-life [1]: 49.8 min | half-life [2]: 85.5 min | EC50 (KOP): 1.8 nM | Degradation in cAMP assay buffer (Stability in cAMP buffer): no degradation | EC50 (DOP): > 10000 nM

CC(C)C[C@H](NC(=O)[C@H](Cc1ccc([N+](=O)[O-])cc1)NC(=O)CN(C)C(=O)[C@@H](N)Cc1ccc(O)cc1)C(=O)N[C@@H](CCCNC(=N)N)C(=O)N[C@H](CCCNC(=N)N)C(=O)N[C@@H]1CSSC(C)(C)CNC(=O)C[C@H](C(=O)N[C@@H](CCCCN)C(N)=O)NC(=O)[C@H](CCCNC(=N)N)NC1=O [CP13, c(Tyr-Sar(p-NO2-Phe)-Leu-Arg-D(Arg)-SSa-Arg-D(Asp)-Lys] (H-Y[Sar][Phe(4-NO2)]LR[dR][dC]R[dD]K-NH2; linker 7-9 via X1)
EC50 (MOP): > 10000 nM | half-life at 100 uM [1]: 1410 min | Degradation in trypsin [1]: no sign of degradation | half-life at 100 uM [2]: 63.3 min | EC50 (KOP): 16 nM | Degradation in cAMP assay buffer (Stability in cAMP buffer): no degradation

CC(C)C[C@H](NC(=O)[C@H](Cc1ccc([N+](=O)[O-])cc1)NC(=O)CN(C)C(=O)[C@@H](N)Cc1ccc(O)cc1)C(=O)N[C@@H](CCCNC(=N)N)C(=O)N(C)[C@@H](CCCNC(=N)N)C(=O)N[C@@H]1CC(=O)NCC(C)(C)SSC[C@H](C(=O)N[C@H](CCCCN)C(N)=O)NC(=O)[C@@H](CCCNC(=N)N)NC1=O [CP14, c(Tyr-Sar-(p-NO2-Phe)-Leu-Arg-NMA-D(Asp)-D(Arg)-SSa-D(Lys))] (H-Y[Sar][Phe(4-NO2)]LR[NMeR][dD][dR][dC][dK]-NH2; linker 7-9 via NHCH2CMe2S)
EC50 (MOP): > 10000 nM | half-life at 100 uM [1]: 2320 min | Degradation in trypsin [1]: no sign of degradation | half-life at 100 uM [2]: 70.8 min | EC50 (KOP): 4.4 nM | Degradation in cAMP assay buffer (Stability in cAMP buffer): no degradation

Tyr-Gly-Gly-Phe-Leu-Arg-Arg
fragment found (trypsin): DYN A (1-6), 15 min

Tyr-Gly-Gly-Phe-Leu-Arg-Arg-Ile-Arg-Pro-Lys
fragment found (trypsin): DYN A (1-7), first_seen, initial time point samples; also recorded: DYN A (1-6), first_seen, initial time point samples | not cleaved (trypsin): DYN 1-9 was not observed upon trypsin digestion

c(Tyr-Gly-Gly-Phe-D(Asp)-Arg-SSa-Ile-Arg-Pro-Lys)
not cleaved (trypsin): Stable up to 6 h; more than 90% remained after 360 minutes

c(Tyr-Sar(p-NO2-Phe)-Leu-Arg-D(Arg)-SSa-Arg-D(Asp)-Lys
not cleaved [3]: no sign of degradation over the 120 minute assay

c(Tyr-Sar-(p-NO2-Phe)-Leu-Arg-NMA-D(Asp)-D(Arg)-SSa-D(Lys))
not cleaved [3]: no sign of degradation over the 120 minute assay
